Experiments:
REH [1] = assay: Cell viability (CellTiter Glo), library of cancer drugs, individual or sample compression with randomized (alphabetical) pools, REH; type: cell-based; conditions: REH; for DRS: None (measured individually); for DRS from deconvolution: Samples, 7 Pick 3 randomized (alphabetical) sample pools
Method: (§1) Total cell viability was measured for each sample using an ATP-based luminescence assay (i.e., CellTiter Glo). Each cancer drug was then screened at multiple concentrations ranging from one nM to ten μM in order to generate a dose-response curve and calculate a DRS for each cancer cell line.
(§2) Each cancer drug was cultured with target cells individually. At the end of the screen, samples were either analyzed individually or compressed into pools for analysis. The library was compressed alphabetically into ten cohorts, each of which contained seven cancer drugs present in three out of the seven pools, as shown in Table VII. Said another way, the screening platform 210 generated a “7 pick 3” compressed library by assigning the cancer drugs among different pools. […] The library was also compressed into ten cohorts with pools designed based on information known about each cancer drug, as shown in Table VIII. After cell viability measurement and DRS calculation, the DRS of each cancer drug in the samples generated based on the pools were deconvoluted and compared to the DRS for each cancer drug measured individually.
(§3) In SUM-based deconvolution, an assumption of additivity is used to quantify the individual effects of each perturbation on each target. Additivity implies that each perturbation effect on each target is positively contributing to the overall effect measured for that pool. This is an accurate assumption for certain experiments, such as when targets or samples are compressed. When targets are pooled—or when samples containing different targets are pooled—the effect of each perturbation on each individual target is diluted. In other words, each perturbation has an isolated effect on a target in culture, and the sum total of the isolated effects are measured when pooled. Therefore, SUM-based deconvolution breaks down the sum total measured for a pool and assigns estimated fractional effects to each compressed perturbation or target in the pool. The screening platform 210 used SUM-based deconvolution for all target and sample compression experiments described above.

MOLT-4 [2] = assay: Cell viability (CellTiter Glo), library of cancer drugs, individual or sample compression with randomized (alphabetical) pools, MOLT-4; type: cell-based; conditions: for DRS: MOLT-4, None (measured individually); for DRS from deconvolution: MOLT-4, Samples, 7 Pick 3 randomized (alphabetical) sample pools
Method: as §1, §2, §3

REH [3] = assay: Cell viability (CellTiter Glo), compressed perturbation pools with informed pool design, MAX-based deconvolution, REH; conditions: REH; for DRS: None (measured individually), informed pool design table; for DRS from MAX-based deconvolution: Samples, 7 Pick 3 informed perturbation pools;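 for all read-outs here: higher DRS means a larger drug effect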
Method: as §1, §2
(§4) In parallel to the exemplary sample compression screen covered in Table VII, perturbations were compressed into pools and then screened. The pools were designed using drug class as a feature with two compression rules (or simply “rules”). The first rule required that drugs from the same class be separated into different cohorts (i.e., mutually exclusive groups of pools). […] A benefit of compressing perturbations is the ability to measure additive, antagonistic, and synergistic effects between drugs in the same pool. However, these effects can negatively impact deconvolution of individual drug effects. Therefore, combinations of drugs for which evidence of clinical toxicity exists can be assigned to different pools in accordance with an informed pooling operation. As new preclinical or clinical evidence of toxic combinations becomes available, the rules implemented by the screening platform 210—and more specifically, its algorithm for compressing members of a library—can be updated accordingly.
(§5) In MAX-based deconvolution, an assumption of neutrality between the compressed perturbations is made. In other words, the perturbation with the largest effect is assumed to be masking the effects, if any, of the other perturbations in the pool. For SUM- and MAX-based deconvolution, qualitative deconvolution is first performed to rank the perturbations in each pool based on size of expected effect. Qualitative deconvolution, as described above, ranks the perturbations in a pool from largest effect size to smallest effect size. The ranking is based on the overlap of each perturbation's unique subset of pools with the highest and lowest measured pools. The perturbation with the largest effect is expected to be present in the pools with the highest measured signal or corresponding metric (e.g., DRS), while the perturbation with the smallest effect is expected to be present in the pools with the lowest measured signal or corresponding metric (e.g., DRS).
(§6) For MAX-based deconvolution, the highest ranked perturbation in the rank order is first assigned an effect size based on the pool with the lowest measured signal or corresponding metric (e.g., DRS) that it is present in. Said another way, the screening platform 210 can identify the highest ranked perturbation in the rank order and then assign an effect size based on the measured signal or corresponding metric (e.g., DRS) of the “weakest” pool in which the highest ranked perturbation is included. The screening platform 210 can repeat this step for the next highest ranked perturbation, and so on until the measurements for each pool have been assigned to one of the perturbations. The effects for the remaining perturbations can be assigned a value of zero, since it is assumed that their effect is masked by the perturbation with the largest effect in each pool.

MOLT-4 [4] = assay: Cell viability (CellTiter Glo), compressed perturbation pools with informed pool design, MAX-based deconvolution, MOLT-4; conditions: for DRS: MOLT-4, None (measured individually), informed pool design table; for DRS from MAX-based deconvolution: MOLT-4, Samples, 7 Pick 3 informed perturbation pools;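 for all read-outs here: higher DRS means a larger drug effect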
Method: as §1, §2, §4, §5, §6

| Structure (SMILES) | DRS (REH [1]) | DRS from deconvolution (REH [1]) | DRS (MOLT-4 [2]) | DRS from deconvolution (MOLT-4 [2]) | DRS (REH [3]) | DRS from MAX-based deconvolution (REH [3]) | DRS (MOLT-4 [4]) | DRS from MAX-based deconvolution (MOLT-4 [4]) |
| --- | --- | --- | --- | --- | --- | --- | --- | --- |
| C[C@]12CC[C@@H]3c4ccc(O)cc4C[C@@H](CCCCCCCCC[S+]([O-])CCCC(F)(F)C(F)(F)F)[C@H]3[C@@H]1CC[C@@H]2O (stereo partly shown) [Fulvestrant] | 0.21 | 0.00 | 0.01 | 0.00 | 0.00 | 0.00 | 0.00 | 0.00 |
| CCc1nc(C(N)=O)c(Nc2ccc(N3CCC(N4CCN(C)CC4)CC3)c(OC)c2)nc1NC1CCOCC1 [Gilteritinib] | 0.00 | 0.00 | 0.00 | 0.00 | 0.20 | 0.00 | 0.00 | 0.00 |
| CN1CC[C@@H](NC(=O)Nc2ccc(C#N)cc2)C[C@@H]1c1nc2ccccc2[nH]1 [Glasdegib] | 1.63 | 1.45 | 0.03 | 0.00 | 0.00 | 0.00 | 0.00 | 0.00 |
| C=CC(=O)N1CCC[C@@H](n2nc(-c3ccc(Oc4ccccc4)cc3)c3c(N)ncnc32)C1 [Ibrutinib] | 0.95 | 0.96 | 2.35 | 2.50 | 0.95 | 1.56 | 2.35 | 3.17 |
| CC(C)C[C@H](NC(=O)CNC(=O)c1cc(Cl)ccc1Cl)B(O)O [Ixazomib] | 15.29 | 15.74 | 13.99 | 14.23 | 0.00 | 0.00 | 0.00 | 0.00 |
| CS(=O)(=O)CCNCc1ccc(-c2ccc3ncnc(Nc4ccc(OCc5cccc(F)c5)c(Cl)c4)c3c2)o1 [Lapatinib] | 0.74 | 0.81 | 0.74 | 0.71 | 6.99 | 8.02 | 5.79 |  |
| O=C(Nc1cnn2ccc(N3CCC[C@@H]3c3cc(F)ccc3F)nc12)N1CC[C@H](O)C1 [Larotrectinib] | 0.00 | 0.00 | 0.00 | 0.00 | 0.74 | 0.00 | 0.74 | 0.00 |
| N#Cc1ccc(C(c2ccc(C#N)cc2)n2cncn2)cc1 [Letrozole] | 3.93 | 4.02 | 3.50 | 3.47 | 0.00 | 0.00 | 0.00 | 0.00 |
| C[C@H]1Oc2cc(cnc2N)-c2c(nn(C)c2C#N)CN(C)C(=O)c2ccc(F)cc21 [Lorlatinib] | 0.00 | 0.00 | 0.00 | 0.00 | 0.00 | 0.00 | 0.00 | 0.00 |
| Cc1cn(-c2cc(NC(=O)c3ccc(C)c(Nc4nccc(-c5cccnc5)n4)c3)cc(C(F)(F)F)c2)cn1 [Nilotinib] | 2.85 | 2.97 | 3.95 | 3.88 | 0.00 | 0.00 | 0.00 | 0.00 |
| O=C(c1cc(Cc2n[nH]c(=O)c3ccccc23)ccc1F)N1CCN(C(=O)C2CC2)CC1 [Olaparib] | 2.58 | 2.61 | 5.28 | 5.41 | 1.84 | 0.00 | 0.24 | 0.00 |
| FC(F)(F)c1ccc(CNc2ccc(Cc3c[nH]c4ncc(Cl)cc34)cn2)cn1 [Pexidartinib] | 2.30 | 2.11 | 0.00 | 0.00 | 1.00 | 0.00 | 7.00 | 9.12 |
| Cc1ccc(C(=O)Nc2ccc(CN3CCN(C)CC3)c(C(F)(F)F)c2)cc1C#Cc1cnc2cccnn12 [Ponatinib] | 4.42 | 3.86 | 6.12 | 6.51 | 0.84 | 0.00 | 0.24 | 0.00 |
| CNC(=O)c1cc(Oc2ccc(NC(=O)Nc3ccc(Cl)c(C(F)(F)F)c3)c(F)c2)ccn1 [Regorafenib] | 6.99 | 7.23 | 5.79 | 5.22 | 2.85 | 2.97 | 3.95 | 4.25 |
| CN(C)C(=O)c1cc2cnc(Nc3ccc(N4CCNCC4)cn3)nc2n1C1CCCC1 [Ribociclib] | 0.84 | 0.00 | 0.24 | 0.00 | 12.67 | 14.44 | 9.01 | 11.35 |
| N#CC[C@H](C1CCCC1)n1cc(-c2ncnc3[nH]ccc23)cn1 [Ruxolitinib] | 0.00 | 0.00 | 1.60 | 1.74 | 0.60 | 0.00 | 0.00 | 0.00 |
| Cn1cnc2c(F)c(Nc3ccc(Br)cc3Cl)c(C(=O)NOCCO)cc21 [Selumetinib] | 0.00 | 0.00 | 0.40 | 0.00 | 3.91 | 4.43 | 2.74 | 3.41 |
| Cc1c(C(=O)Nc2ccc(N3C[C@@H](C)O[C@@H](C)C3)nc2)cccc1-c1ccc(OC(F)(F)F)cc1 [Sonidegib] | 2.40 | 2.42 | 2.50 | 2.47 | 0.79 | 3.57 | 1.79 | 0.00 |
| CNC(=O)c1cc(Oc2ccc(NC(=O)Nc3ccc(Cl)c(C(F)(F)F)c3)cc2)ccn1 [Sorafenib] | 0.53 | 0.44 | 0.33 | 0.25 | 1.78 | 0.00 | 0.88 | 0.00 |
